According to ChEMBL document CHEMBL4483862, “Open-source discovery of chemical leads for next-generation chemoprotective antimalarials” (2018):

Test system: Plasmodium berghei
Assay: Luciferase/luciferin-expressing antifolate-resistant parasites were used to infect a culture of HepG2 cells that were pre-incubated with compounds. Infected hepatocytes emit light due to the luciferase reaction. Assay results are presented as the percent inhibition of light emission compared to control. […]
Assay type: functional
Conditions: sporozoite; for IC90: read-out: LUCIFERASE INFECTION ASSAY - IC90
[1] = read-out: LUCIFERASE INFECTION ASSAY - IC50

CCCCCCOc1ccc(-c2cnc(SC)nc2)cc1
IC50 [1]: 0.205 µM
IC90: 0.535 µM

O=C(NCCSCc1csc2ccc(Cl)cc12)Nc1ccccc1
IC50 (PBLUC_HILL_SLOPE 14.3, PBLUC_R_SQUARED 0.456, read-out: LUCIFERASE INFECTION ASSAY - IC50): 8.24 µM
IC90: > 8.75 µM

Cc1ccc2c(C)cc(Sc3nc4ccccc4s3)nc2c1
IC50 [1]: > 10 µM
IC90: > 10 µM

O=C(Oc1ccc(Cl)cc1Cc1ccccc1)c1ccccc1-c1ccc(C(F)(F)F)cc1
IC50 (PBLUC_HILL_SLOPE 2.87, PBLUC_R_SQUARED 0.0345, read-out: LUCIFERASE INFECTION ASSAY - IC50): 8.61 µM
IC90: > 10 µM

Cc1onc(-c2ccccc2)c1-c1ccnn1C(=O)Nc1cccc(C(F)(F)F)c1
IC50 (PBLUC_HILL_SLOPE 13.1, PBLUC_R_SQUARED 0.207, read-out: LUCIFERASE INFECTION ASSAY - IC50): 7.19 µM
IC90: > 8 µM

Cc1ccc(N2C(=O)/C(=C/c3ccc(C(C)C)cc3)N=C2SCc2cccc(S(=O)(=O)N(C)C)c2)cc1
IC50 (FFLUC_HILL_SLOPE 2.29, FFLUC_R_SQUARED 0.777, PBLUC_HILL_SLOPE 2.35, PBLUC_R_SQUARED 0.372, read-out: LUCIFERASE INFECTION ASSAY - IC50): 6.97 µM
IC90: > 10 µM

O=C1Nc2ccc([N+](=O)[O-])cc2/C1=N\NC(=O)c1cc2ccccc2cc1O
IC50 (PBLUC_HILL_SLOPE 1.88, PBLUC_R_SQUARED 0.548, read-out: LUCIFERASE INFECTION ASSAY - IC50): 4.86 µM
IC90: > 10 µM

Cc1cccc(C)c1OC(=O)c1cn(Cc2ccccc2)nc1-c1cccnc1
IC50 (HEPG2TOX_HILL_SLOPE 0.808, HEPG2TOX_R_SQUARED 0.825, read-out: LUCIFERASE INFECTION ASSAY - IC50): > 10 µM
IC90: > 10 µM

CCCn1c(SCC(=O)Nc2cc(S(=O)(=O)N(CC)c3ccccc3)ccc2Cl)nc2ccccc2c1=O
IC50 (FFLUC_HILL_SLOPE 3.64, FFLUC_R_SQUARED 0.239, PBLUC_HILL_SLOPE 6.57, PBLUC_R_SQUARED 0.539, read-out: LUCIFERASE INFECTION ASSAY - IC50): 8.45 µM
IC90: > 10 µM

CC1CC(NC(=O)c2cc3c(=O)n4ccccc4nc3n2C)CC(C)(C)C1 (stereo unspecified)
IC50 (PBLUC_HILL_SLOPE 172, PBLUC_R_SQUARED 0.0501, read-out: LUCIFERASE INFECTION ASSAY - IC50): 2.7 µM
IC90: 2.74 µM

CCCNC(=O)c1c(NC(=O)c2cccc(Cl)c2)nc2ccccn12
IC50 (FFLUC_HILL_SLOPE 126, FFLUC_R_SQUARED 0.738, HEPG2TOX_HILL_SLOPE 0.804, HEPG2TOX_R_SQUARED 0.952, PBLUC_HILL_SLOPE 15.4, PBLUC_R_SQUARED 0.753, read-out: LUCIFERASE INFECTION ASSAY - IC50): 0.96 µM
IC90: 1.11 µM

CCCc1ccc(-c2nc(NC(=O)C3CCCN(c4ncccn4)C3)sc2C)cc1 (stereo unspecified)
IC50 (FFLUC_HILL_SLOPE 11.3, FFLUC_R_SQUARED 0.0894, PBLUC_HILL_SLOPE 12.7, PBLUC_R_SQUARED 0.313, read-out: LUCIFERASE INFECTION ASSAY - IC50): 9.57 µM
IC90: > 10 µM

CN(C)CCCOc1ccc(-c2ccc(C(C)(C)C)cc2)cn1
IC50 (PBLUC_HILL_SLOPE 0.428, PBLUC_R_SQUARED 0.727, read-out: LUCIFERASE INFECTION ASSAY - IC50): 0.0859 µM
IC90: > 10.6 µM

COC(=O)c1occc1/C=C/C(=O)c1ccc2c(c1)CCC2
IC50 [1]: > 10 µM
IC90: > 10 µM

CC(C)C(=O)N1CCN(c2nc(CSc3ccccc3)nc3sc4c(c23)CCCC4)CC1
IC50 (PBLUC_HILL_SLOPE 15.3, PBLUC_R_SQUARED 0.212, read-out: LUCIFERASE INFECTION ASSAY - IC50): 8.67 µM
IC90: > 10 µM

Cc1cc(C(=O)CSc2nnc(C3CC3)o2)c(C)n1-c1ccc2c(c1)CCC2
IC50 (HEPG2TOX_HILL_SLOPE 7.74, HEPG2TOX_R_SQUARED 0.677, read-out: LUCIFERASE INFECTION ASSAY - IC50): > 10 µM
IC90: > 10 µM

FC(F)(F)c1nc(NCCNc2ccccn2)c2ccccc2n1
IC50 (HEPG2TOX_HILL_SLOPE 0.531, HEPG2TOX_R_SQUARED 0.801, PBLUC_HILL_SLOPE 0.677, PBLUC_R_SQUARED 0.347, read-out: LUCIFERASE INFECTION ASSAY - IC50): 0.214 µM
IC90: 5.48 µM

C/C(CCc1ccc2c(c1)OCO2)=N\Nc1nc2ccccc2[nH]1
IC50 [1]: > 10 µM
IC90: > 10 µM

Cc1nn(-c2ccccc2)c(N2CCCCC2)c1/C=N/Nc1ccc(C(F)(F)F)cn1
IC50 [1]: > 10 µM
IC90: > 10 µM

CC(=O)c1cccc(-c2ccc3ncc(-c4ccoc4)n3n2)c1
IC50 [1]: > 10 µM
IC90: > 10 µM

O=C(c1cc(C2=NNC(=Nc3ccc(Cl)cc3)SC2)c[nH]1)N1CCCC1
IC50 (PBLUC_HILL_SLOPE 2.6, PBLUC_R_SQUARED 0.441, read-out: LUCIFERASE INFECTION ASSAY - IC50): 5.46 µM
IC90: > 10 µM

Cc1nn(CC(=O)Nc2cccc(Cl)c2)c(C)c1Oc1ccccc1
IC50 [1]: 5.38 µM
IC90: > 9.27 µM

CCc1nn2c(NCc3ccccn3)cc(C)nc2c1-c1ccccc1
IC50 (PBLUC_HILL_SLOPE 4, PBLUC_R_SQUARED 0.354, read-out: LUCIFERASE INFECTION ASSAY - IC50): 6.15 µM
IC90: > 9.61 µM

CC1(C)CC(=O)C(C(c2ccc(OCc3ccccc3)cc2)C2C(=O)CC(C)(C)CC2=O)C(=O)C1
IC50 (FFLUC_HILL_SLOPE 2.7, FFLUC_R_SQUARED 0.381, read-out: LUCIFERASE INFECTION ASSAY - IC50): > 10 µM
IC90: > 10 µM

COc1ccc(/C(C#N)=C/c2ccccc2OC)cc1
IC50 (HEPG2TOX_HILL_SLOPE 1.28, HEPG2TOX_R_SQUARED 0.968, PBLUC_HILL_SLOPE 1.65, PBLUC_R_SQUARED 0.898, read-out: LUCIFERASE INFECTION ASSAY - IC50): 0.597 µM
IC90: 2.26 µM

Cc1ccc(Cl)cc1NC(=S)N/N=C\c1cccc2ccccc12
IC50 [1]: 0.805 µM
IC90: 1.85 µM

O=C(CCCc1ccc(F)cc1)c1ccc2c(c1)OCCO2
IC50 (FFLUC_HILL_SLOPE 3.34, FFLUC_R_SQUARED 0.538, PBLUC_HILL_SLOPE 0.746, PBLUC_R_SQUARED 0.706, read-out: LUCIFERASE INFECTION ASSAY - IC50): 0.0487 µM
IC90: 0.926 µM

O=C(NCc1sccc1CSc1ccc(Cl)cc1)Nc1cccc(C(F)(F)F)c1
IC50 (HEPG2TOX_HILL_SLOPE 8.54, HEPG2TOX_R_SQUARED 0.938, PBLUC_HILL_SLOPE 7.51, PBLUC_R_SQUARED 0.41, read-out: LUCIFERASE INFECTION ASSAY - IC50): 3.79 µM
IC90: 5.08 µM

O=C(c1cccnc1)N1CCc2nc(NCc3cccc(Oc4ccccc4)c3)ncc2C1
IC50 (HEPG2TOX_HILL_SLOPE 6.99, HEPG2TOX_R_SQUARED 0.608, read-out: LUCIFERASE INFECTION ASSAY - IC50): > 7.54 µM
IC90: > 7.54 µM

O=C(CCCNC(=O)c1ccsc1)Nc1ccc(OC(F)(F)F)cc1
IC50 [1]: > 10 µM
IC90: > 10 µM

CN(C)c1ccc(C(=O)Nc2cnc3ccccc3c2)cc1
IC50 (FFLUC_HILL_SLOPE 4.08, FFLUC_R_SQUARED 0.429, HEPG2TOX_HILL_SLOPE 2.09, HEPG2TOX_R_SQUARED 0.742, PBLUC_HILL_SLOPE 0.628, PBLUC_R_SQUARED 0.448, read-out: LUCIFERASE INFECTION ASSAY - IC50): 0.554 µM
IC90: > 10 µM

COCCNC(=O)c1nn(CCC(C)C)c2c1CN(C(=O)c1cc(C)n[nH]1)CC2
IC50 (PBLUC_HILL_SLOPE 11.6, PBLUC_R_SQUARED 0.412, read-out: LUCIFERASE INFECTION ASSAY - IC50): 2.87 µM
IC90: 3.47 µM

Cc1noc(C)c1C(=O)Nc1nc(-c2c[nH]c3ccccc23)cs1
IC50 [1]: > 10 µM
IC90: > 10 µM

N#C/C(=C\C=C\c1ccccc1)c1cccc(Cl)c1
IC50 [1]: > 12.4 µM
IC90: > 12.4 µM

Cc1ccc(C(=O)O)cc1NS(C)(=O)=O
IC50 [1]: > 10 µM
IC90: > 10 µM

Cc1c(-c2ccccc2)oc2c(C(=O)Nc3ccc(N4CCOCC4)c4ccncc34)cccc2c1=O
IC50 (PBLUC_HILL_SLOPE 15.7, PBLUC_R_SQUARED 0.205, read-out: LUCIFERASE INFECTION ASSAY - IC50): 9.81 µM
IC90: > 10 µM

O=S(=O)(NC1CCCCCCC1)c1ccc(S(=O)(=O)C(F)F)cc1
IC50 (HEPG2TOX_HILL_SLOPE 11.1, HEPG2TOX_R_SQUARED 0.22, read-out: LUCIFERASE INFECTION ASSAY - IC50): > 10 µM
IC90: > 10 µM

CC(C)(C)c1cc(C(=O)Nc2cc(-c3cccs3)nn2-c2ccc(F)cc2)n(Cc2ccccc2)n1
IC50 (HEPG2TOX_HILL_SLOPE 6.06, HEPG2TOX_R_SQUARED 0.212, read-out: LUCIFERASE INFECTION ASSAY - IC50): > 6.61 µM
IC90: > 6.61 µM

COC(=O)C1=C(C)NC(C)=C(C(=O)OC)C1c1cc(NC(=O)c2cccc(OC(F)F)c2)ccc1OC(F)F
IC50 (PBLUC_HILL_SLOPE 3.17, PBLUC_R_SQUARED 0.755, read-out: LUCIFERASE INFECTION ASSAY - IC50): 4.45 µM
IC90: 8.9 µM

CCCCNC(=O)c1c(NC(=O)c2ccc(Cl)cc2)nc2ccccn12
IC50 (FFLUC_HILL_SLOPE 14.7, FFLUC_R_SQUARED 0.115, HEPG2TOX_HILL_SLOPE 1.94, HEPG2TOX_R_SQUARED 0.747, PBLUC_HILL_SLOPE 14.3, PBLUC_R_SQUARED 0.4, read-out: LUCIFERASE INFECTION ASSAY - IC50): 2.58 µM
IC90: 3 µM

COc1ccc2oc(C(=O)Nc3nnc(C(C)C)s3)c(C)c2c1
IC50 [1]: 4.49 µM
IC90: > 10 µM

CC(Nc1ncnc2sccc12)c1ccc(-n2cncn2)cc1 (stereo unspecified)
IC50 (HEPG2TOX_HILL_SLOPE 0.68, HEPG2TOX_R_SQUARED 0.808, PBLUC_HILL_SLOPE 0.888, PBLUC_R_SQUARED 0.682, read-out: LUCIFERASE INFECTION ASSAY - IC50): 1.95 µM
IC90: > 10 µM

N#CCNc1ccccc1 [(PHENYLAMINO)ACETONITRILE]
IC50 [1]: > 10 µM
IC90: > 10 µM
